Patent US5468875A, “1-azabicycloheptane derivatives” (American Home Products Corporation, priority 1994, dated 1995)
Read-outs that look alike come from different tables or passages of the source.

Tests used:
[1] = cited from earlier work
[2] = test system: patients with mild to moderate Alzheimer's Disease; conditions: cited from earlier work; for improvement in memory: patients with mild to moderate Alzheimer's Disease
muscarinic = conditions: cited from earlier work
[3] = target: T1, M1 acetylcholine receptors (Homo sapiens, UniProt P11229); assay: stimulation of phosphoinositide (PI) hydrolysis in CHO cells transfected with M1 receptor cDNA; assay type: cell-based; conditions: for Emax: CHO, 1 h; for functional m1 muscarinic agonism: exo versus endo, in words; for EC50: m1 receptors in CHO cells, read-out: % PI Hydrolysis ml receptors in CHO cells ED50
T1 sequence (P11229 1-460): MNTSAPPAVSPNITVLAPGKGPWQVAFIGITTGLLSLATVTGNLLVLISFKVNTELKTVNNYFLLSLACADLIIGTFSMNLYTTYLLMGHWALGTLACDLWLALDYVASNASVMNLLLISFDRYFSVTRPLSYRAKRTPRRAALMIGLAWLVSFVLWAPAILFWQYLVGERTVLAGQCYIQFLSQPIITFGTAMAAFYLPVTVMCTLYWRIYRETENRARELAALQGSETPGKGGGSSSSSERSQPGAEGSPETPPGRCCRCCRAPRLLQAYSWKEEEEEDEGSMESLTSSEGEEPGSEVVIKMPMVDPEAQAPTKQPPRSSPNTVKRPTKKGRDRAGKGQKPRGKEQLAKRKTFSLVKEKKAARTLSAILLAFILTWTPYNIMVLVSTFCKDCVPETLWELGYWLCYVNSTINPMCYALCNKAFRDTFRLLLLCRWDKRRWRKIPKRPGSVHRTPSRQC

m1 receptor = m1 receptor (Homo sapiens, UniProt P11229); assay: biochemical; conditions: ml 3H QNB Binding in CHO cells Ki, 0.23 nM [3H]QNB, 37° C., one hour
m1 receptors = conditions: cited from earlier work
[4] = test system: scopolamine treated animals; assay: reversal of scopolamine-induced hyperactivity, swim tank test; assay type: in vivo, Male CFW mice; conditions: Mus musculus, ip, 5 min, mice, scopolamine.HBr 0.3 mg/kg i.p., swim distance, read-out: minimum effective dose (MED), reversal of hyperactivity of scopolamine treated animals
Experimental: The compound of Example 3, representative of the other compounds of this invention, was also tested in accordance with the procedure of Symons et al, Soc. Neuroscience Abstracts 12:2, 897 (1986) in which Male CFW mice, 25 to 35 grams in weight are given the test compound in suitable vehicle plus 0.3 mg/kg scopolamine.HBr in suitable vehicle, i.p.(3 groups of 12 animals each) or vehicle alone (1 group of 12 animals ) or vehicle plus scopolamine.HBr (1 group of 12 animals). The mice are placed in a swim tank, individually, containing 10 cm H2 O for a period of 5 minutes and the distance each animal swims is recorded.

[5] = test system: scopolamine disrupted rat performance; assay: eight arm radial maze test, scopolamine disrupted performance; assay type: in vivo, Sprague-Dawley male rats; conditions: ip, rats, test compound i.p., scopolamine HBr 0.3 mg/kg, s.c., read-out: minimum effective dose (MED), reversal of scopolamine disrupted rat performance
Experimental: The compound of Example 3 was also tested in the eight arm radial maze test procedure in which Sprague-Dawley male rats at 85% of their free feeding weight are trained to obtain two food pellets from food cups placed at the ends of four of the eight arms radiating from a circular central area of the maze, in a five minute period. After training to a level of error (rerum to a previously entered arm is error) equal to or less than 2, the rats performance is disrupted with scopolamine HBr (0.3 mg/kg, s.c.) and test compound dosage (i.p.). The number of errors are then determined and compared with control receiving scopolamine alone.

[6] = read-out: % PI Hydrolysis ml receptors in CHO cells 30x Ki (μM) carb=100%
[7] = read-out: % PI Hydrolysis ml receptors in CHO cells maximum % carbachol=100%

COC(=O)C1=CCCN(C)C1 [Arecoline, arecoline]
half-life [1]: short half-life | improvement in memory [2]: demonstrated memory improvement in patients with mild to moderate Alzheimer's Disease

CN(C)C(=O)OC1CC2CCCN(C2)C1 (stereo not drawn) [exo-1-azabicyclo[3.3.1]non-3-yl-N,N-dimethylcarbamate]
muscarinic activity (muscarinic): having muscarinic activity

CNC(=O)O[C@H]1CN2CC[C@H]1C2 (relative stereo) [Example 1, (exo)-Methylcarbamic acid 1-aza-bicyclo[2.2.1]hept-3-yl ester]
Emax [3, 6]: 61.9% | Emax [3, 7]: 54.9% | functional m1 muscarinic agonism [3]: enhanced muscarinic agonism | EC50 [3]: 6.9 µM | Ki (m1 receptor): 29.3 µM

C[C@@H]1O[C@H](C[N+](C)(C)C)C[C@H]1O [muscarine]
activation of m1 receptors (m1 receptors): able to fully activate m1 receptors

C#CCNC(=O)O[C@H]1CN2CC[C@H]1C2 (single isomer, unassigned) [Example 13, (-)-(exo)-Propargylcarbamic acid 1-aza-bicyclo[2.2.1]hept-3-yl ester]
Emax [3, 6]: 39.4% | Ki (m1 receptor): 14.5 µM

CNC(=O)OC1CN2CCCC1C2 (stereo not drawn) [exo-1-azabicyclo[3.2.1oct-6-yl-N-methylcarbamate]
muscarinic activity (muscarinic): having muscarinic activity

CNC(=S)O[C@H]1CN2CC[C@H]1C2 (single isomer, unassigned) [Example 5, (+)-(exo)-Methylthiocarbamic acid 1-aza-bicyclo[2.2.1]hept-3-yl ester]
Emax [3, 7]: 51.5% | EC50 [3]: 2.9 µM | Ki (m1 receptor): 6.93 µM

CNC(=O)O[C@H]1CN2CC[C@H]1C2 (single isomer, unassigned) [Example 3, (-)-(exo)-Methylcarbamic acid 1-aza-bicyclo[2.2.1]hept-3-yl ester]
Emax [3, 6]: 71.9% | Emax [3, 7]: 68.7% | EC50 [3]: 9.8 µM | Ki (m1 receptor): 26.6 µM | minimal effective dose [4]: 30 mg/kg

CNC(=S)O[C@H]1CN2CC[C@H]1C2 (single isomer, unassigned) [Example 6, (-)-(exo)-Methylthiocarbamic acid 1-aza-bicyclo[2.2.1]hept-3-yl ester]
% PI Hydrolysis ml receptors in CHO cells maximum % carbachol=100% ([3]; cho cells, 60 min): 69.7% | EC50 [3]: 6.3 µM | Ki (m1 receptor): 14.5 µM

O=C(NCC(F)(F)F)O[C@H]1CN2CC[C@H]1C2 (relative stereo) [Example 9, (exo)-(2.2.2-Trifluoroethyl)carbamic acid 1-aza-bicyclo[2.2.1]hept-3-yl ester]
Ki (m1 receptor): 14.5 µM

O=C(NC1CC1)O[C@H]1CN2CC[C@H]1C2 (single isomer, unassigned) [Example 12]
Ki (m1 receptor): 20.5 µM

O=C(NCC(F)(F)F)O[C@H]1CN2CC[C@H]1C2 (single isomer, unassigned) [Example 10, (-)-(exo)-(2.2.2-Trifluoroethyl)carbamic acid 1-aza-bicyclo[2.2.1]hept-3-ylester]
Ki (m1 receptor): 17.6 µM

CCNC(=O)O[C@H]1CN2CC[C@H]1C2 (single isomer, unassigned) [Example 8, (-)-(exo)-Ethylcarbamic acid 1-aza-bicyclo[2.2.1]hept-3-yl ester]
Emax [3, 6]: 58.8% | Ki (m1 receptor): 21.5 µM

CNC(=O)O[C@H]1CN2CC[C@H]1C2 (single isomer, unassigned) [Example 2, (+)-(exo)-Methylcarbamic acid 1-aza-bicyclo[2.2.1]hept-3-yl ester]
minimal effective dose [5]: 1 mg/kg | Ki (m1 receptor): 41.8 µM

CCNC(=O)O[C@H]1CN2CC[C@H]1C2 (single isomer, unassigned) [Example 7, (+)-(exo)-Ethylcarbamic acid 1-aza-bicyclo[2.2.1]hept-3-yl ester]
Ki (m1 receptor): 14.3 µM

CNC(=O)OC1CC2CCCN(C2)C1 (stereo not drawn) [exo-1-azabicyclo[3.3.1]non-3-yl-N-methylcarbamate]
muscarinic activity (muscarinic): having muscarinic activity

O=C(NC1CC1)O[C@H]1CN2CC[C@H]1C2 (relative stereo) [Example 11, (exo)-Cyclopropylcarbamic acid 1-aza-bicyclo[2.2.1]hept-3-yl ester]
Emax [3, 6]: 10.1% | Ki (m1 receptor): 1.81 µM

CNC(=S)O[C@H]1CN2CC[C@H]1C2 (relative stereo) [Example 4, (exo)-Methylthiocarbamic acid 1-aza-bicyclo[2.2.1]hept-3-yl ester]
Emax [3, 6]: 21.8% | Ki (m1 receptor): 3.72 µM

CNC(=O)O[C@H]1CN2CC[C@@H]1C2 (relative stereo) [endo azacycloheptane analog]
functional m1 muscarinic agonism [3]: not

Nc1c2c(nc3ccccc13)CCCC2 [tactine]
adverse side effects ([2]; higher doses): adverse side effects especially at the higher doses where it is most effective | improvement in memory [2]: improvement in memory can be shown in patients with mild to moderate Alzheimer's Disease
